ChEMBL document CHEMBL3244296, “3-Aryl- and 3-hydroxy-3-aryloctahydropyrido[2,1-c][1,4]oxazines. Synthesis, stereochemistry, and central nervous system pharmacological actions” (J Med Chem, 1978)
Active and inactive are the calls of the source. The calls are words filed in the database; no cut-off is given here.

Key:
Mus musculus [1] = assay: Reduction in spontaneous locomotor activity in mouse at 40 mg/kg, ip measured for 30 mins; type: functional, organism-based; parameters: dose 40 mg/kg
Mus musculus [2] = assay: Anticonvulsant activity in mouse assessed as protection against maximal electroshock-induced seizures at <= 300 mg/kg, ip; type: functional, organism-based; parameters: dose 300 mg/kg
Mus musculus [3] = assay: Anticonvulsant activity in ip dosed mouse assessed as protection against subcutaneous metrazol-induced seizures; type: functional; conditions: read-out: MED
Mus musculus [4] = assay: Anticonvulsant activity in ip dosed mouse assessed as protection against maximal electroshock-induced seizures measured as lowest dose required for activity; type: functional; conditions: read-out: MED
Mus musculus [5] = assay: Anticonvulsant activity in mouse assessed as protection against subcutaneous metrazol-induced seizures at <= 300 mg/kg, ip; type: functional, organism-based; parameters: dose 300 mg/kg
[6] = Neurotoxicity in ip dosed mouse by rotarod test; type: toxicity, organism-based; conditions: in vivo
Mus musculus [7] = assay: Stimulation of spontaneous locomotor activity in mouse at 20 mg/kg, ip measured for 30 mins relative to control; type: functional
Mus musculus [8] = assay: Anticonvulsant activity in ip dosed mouse assessed as protection against maximal electroshock-induced seizures; type: functional
[9] = Protective index, ratio of TD50 for neurotoxicity in ip dosed mouse to ED50 for anticonvulsant activity in ip dosed mouse; type: toxicity, organism-based; conditions: in vivo, read-out: Ratio TD50/ED50
Mus musculus [10] = assay: Reduction in spontaneous locomotor activity in mouse at 20 mg/kg, ip measured for 30 mins relative to control; type: functional, organism-based; parameters: dose 20 mg/kg
Mus musculus [11] = assay: Neurotoxicity in ip dosed mouse assessed as time to reach peak effect by rotarod test; type: toxicity, organism-based; conditions: in vivo
Mus musculus [12] = assay: Anticonvulsant activity in ip dosed mouse assessed as time to reach peak effect; type: functional
Rattus norvegicus [13] = assay: Anorexic activity in ip dosed Sprague-Dawley rat assessed as dose required to reduce food intake by 50%; type: functional
Rattus norvegicus [14] = assay: Anorexic activity in Sprague-Dawley rat assessed as reduction in food intake at 10 to 40 mmol/kg, ip; type: functional, organism-based
Rattus norvegicus [15] = assay: Toxicity in Sprague-Dawley rat assessed as lethality at 20 to 40 mg/kg, ip; type: organism-based; parameters: dose 20-40 mg/kg, route intraperitoneal; conditions: in vivo
Rattus norvegicus [16] = assay: Anorexic activity in Sprague-Dawley rat assessed as reduction in food intake at […], ip relative to control; type: functional; parameters: scale not given: the % may be the effect or the level left
Rattus norvegicus [17] = assay: Anorexic activity in Sprague-Dawley rat assessed as reduction in food intake at 5 to 20 mmol/kg, ip; type: functional, organism-based
Mus musculus [18] = assay: Reduction in spontaneous locomotor activity in mouse at 5 mg/kg, ip measured for 30 mins relative to control; type: functional; parameters: scale not given: the % may be the effect or the level left; conditions: route intraperitoneal
[19] = Toxicity in ip dosed mouse assessed as lethality; type: organism-based; conditions: in vivo

| Structure (SMILES) | Activity (Mus musculus [1]) | minimal effective dose (Mus musculus [4]) | Activity (Mus musculus [5]) | other results |
| --- | --- | --- | --- | --- |
| Oc1ccc(C2CN3CCCCC3CO2)cc1 (configuration not stated) | Active |  |  |  |
| COc1cc(C2(O)CN3CCCCC3CO2)cc(OC)c1OC.Cl (configuration not stated) | Active |  |  | Activity (Mus musculus [2]): inactive; minimal effective dose (Mus musculus [3]): 300 mg/kg |
| COc1cccc(C2(O)CN3CCCCC3CO2)c1.Cl (configuration not stated) | Active | 100 mg/kg | inactive |  |
| CC(=O)Oc1cccc(C2CN3CCCCC3CO2)c1 (configuration not stated) | inactive |  |  |  |
| CCC1(c2ccccc2)C(=O)N=C([O-])NC1=O.[Na+] (configuration not stated) [PHENOBARBITAL SODIUM] |  |  |  | TD50 [6]: 333000 µmol/kg; Activity (Mus musculus [7]; route intraperitoneal): 215%; ED50 (Mus musculus [8]): 85700 µmol/kg; selectivity ratio [9]: 3.88 |
| O=[N+]([O-])c1ccc(C2(O)CN3CCCCC3CO2)cc1 (configuration not stated) | inactive |  |  |  |
| Oc1cccc(C2CN3CCCCC3CO2)c1 (configuration not stated) | inactive |  |  | Activity (Mus musculus [10]): Active |
| COc1ccc(C2(O)CN3CCCCC3CO2)cc1OC.Cl (configuration not stated) | Active |  |  | Activity (Mus musculus [2]): inactive; minimal effective dose (Mus musculus [3]): 100 mg/kg |
| Cl.OC1(c2ccccc2C(F)(F)F)CN2CCCCC2CO1 (configuration not stated) | Active | 30 mg/kg | inactive | TD50 [6]: 547000 µmol/kg; Time (Mus musculus [11]): 0.5 h; Time (Mus musculus [12]): 0.5 h |
| OC1(c2ccc(Br)cc2)CN2CCCCC2CO1 (configuration not stated) | Active |  |  |  |
| CC(=O)Nc1ccc(C2CN3CCCCC3CO2)cc1 (configuration not stated) | Active |  |  |  |
| Cl.FC(F)(F)c1cccc(C2CN3CCCCC3CO2)c1 (configuration not stated) | Active | 30 mg/kg | inactive | TD50 [6]: 263000 µmol/kg; ED50 (Mus musculus [8]): 84600 µmol/kg; selectivity ratio [9]: 3.11; Time (Mus musculus [11]): 0.5 h; Time (Mus musculus [12]): 0.5 h; Activity (Rattus norvegicus [13]): 55.9 mmol/kg; Activity (Rattus norvegicus [14]): Active |
| Cl.OC1(c2ccccc2)CN2CCCCC2CO1 (configuration not stated) | Active | 100 mg/kg | inactive |  |
| Cl.Clc1ccc(C2CN3CCCCC3CO2)cc1 (configuration not stated) | Active |  |  | Activity (Rattus norvegicus [15]): Toxic; Activity (Rattus norvegicus [16]): 40%; Activity (Rattus norvegicus [14]): Active |
| Cl.OC1(c2ccc(F)cc2)CN2CCCCC2CO1 (configuration not stated) | Active | 100 mg/kg | inactive |  |
| Cc1ccc(C2CN3CCCCC3CO2)cc1 (configuration not stated) | Active |  | inactive | Activity (Mus musculus [2]): inactive |
| Cl.c1ccc(C2CN3CCCCC3CO2)cc1 (configuration not stated) | Active | 100 mg/kg | inactive | Activity (Rattus norvegicus [13]): 108.4 mmol/kg; Activity (Rattus norvegicus [14]): inactive |

| Structure (SMILES) | Activity (Mus musculus [1]) | minimal effective dose (Mus musculus [4]) | Activity (Mus musculus [5]) | other results |
| --- | --- | --- | --- | --- |
| OC1(c2ccc(Cl)cc2)CN2CCCCC2CO1 (configuration not stated) | Active |  |  | Activity (Rattus norvegicus [14]): inactive |
| Cl.FC(F)(F)c1ccccc1C1CN2CCCCC2CO1 (configuration not stated) | Active | 30 mg/kg |  | TD50 [6]: 716000 µmol/kg; minimal effective dose (Mus musculus [3]): 300 mg/kg; Time (Mus musculus [11]): 0.5 h; Time (Mus musculus [12]): 0.5 h |
| COc1ccc(C2CN3CCCCC3CO2)cc1OC (configuration not stated) | Active |  |  |  |
| COc1ccc(C2(O)CN3CCCCC3CO2)cc1 (configuration not stated) | Active |  | inactive | Activity (Mus musculus [2]): inactive |
| CCNC(C)Cc1cccc(C(F)(F)F)c1.Cl (configuration not stated) [FENFLURAMINE HYDROCHLORIDE] |  |  |  | Activity (Rattus norvegicus [13]): 16.8 mmol/kg |
| COc1cccc(C2CN3CCCCC3CO2)c1 (configuration not stated) | Active |  |  |  |
| Cl.OC1(c2cccc(C(F)(F)F)c2)CN2CCCCC2CO1 (configuration not stated) | Active | 30 mg/kg | inactive | TD50 [6]: 218000 µmol/kg; ED50 (Mus musculus [8]): 78700 µmol/kg; selectivity ratio [9]: 2.77; Time (Mus musculus [11]): 0.5 h; Activity (Rattus norvegicus [17]): Active; Time (Mus musculus [12]): 0.5 h; Activity (Rattus norvegicus [13]): 29.6 mmol/kg |
| Cl.FC(F)(F)c1ccc(C2CN3CCCCC3CO2)cc1 (configuration not stated) | Active | 30 mg/kg |  | TD50 [6]: 408000 µmol/kg; minimal effective dose (Mus musculus [3]): 300 mg/kg; Time (Mus musculus [11]): 0.5 h; Time (Mus musculus [12]): 0.5 h |
| Cc1ccc(C2(O)CN3CCCCC3CO2)cc1.Cl (configuration not stated) | Active | 100 mg/kg | inactive |  |
| Fc1ccc(C2CN3CCCCC3CO2)cc1 (configuration not stated) | Active |  | inactive | Activity (Mus musculus [2]): inactive |
| COc1ccc(C2CN3CCCCC3CO2)cc1 (configuration not stated) | Active |  |  |  |
| CC(=O)Oc1cccc(C2(O)CN3CCCCC3CO2)c1 (configuration not stated) | inactive |  |  |  |
| CN(C)CCCN1c2ccccc2Sc2ccc(Cl)cc21.Cl [CHLORPROMAZINE HYDROCHLORIDE] |  |  |  | Activity (Mus musculus [18]): 83.6% |
| COc1cc(C2CN3CCCCC3CO2)cc(OC)c1OC (configuration not stated) | Active |  |  |  |
| Cl.OC1(c2ccc(C(F)(F)F)cc2)CN2CCCCC2CO1 (configuration not stated) | Active | 100 mg/kg | inactive | Activity (Mus musculus [7]): Active; LD50 [19]: 468000 µmol/kg; Time (Mus musculus [11]): 0.5 h; Time (Mus musculus [12]): 0.5 h |
| Brc1ccc(C2CN3CCCCC3CO2)cc1 (configuration not stated) | Active |  |  |  |
